The values that follow come from US11253517B2, “Small molecule regulators of steroid receptor coactivators and methods of use thereof” (BAYLOR COLLEGE OF MEDICINE, priority 2016, dated 2022).

In one test the target is T1, IKKb (Homo sapiens, UniProt O14920).
T1 construct: purchased Promega
T1 sequence (O14920 1-756): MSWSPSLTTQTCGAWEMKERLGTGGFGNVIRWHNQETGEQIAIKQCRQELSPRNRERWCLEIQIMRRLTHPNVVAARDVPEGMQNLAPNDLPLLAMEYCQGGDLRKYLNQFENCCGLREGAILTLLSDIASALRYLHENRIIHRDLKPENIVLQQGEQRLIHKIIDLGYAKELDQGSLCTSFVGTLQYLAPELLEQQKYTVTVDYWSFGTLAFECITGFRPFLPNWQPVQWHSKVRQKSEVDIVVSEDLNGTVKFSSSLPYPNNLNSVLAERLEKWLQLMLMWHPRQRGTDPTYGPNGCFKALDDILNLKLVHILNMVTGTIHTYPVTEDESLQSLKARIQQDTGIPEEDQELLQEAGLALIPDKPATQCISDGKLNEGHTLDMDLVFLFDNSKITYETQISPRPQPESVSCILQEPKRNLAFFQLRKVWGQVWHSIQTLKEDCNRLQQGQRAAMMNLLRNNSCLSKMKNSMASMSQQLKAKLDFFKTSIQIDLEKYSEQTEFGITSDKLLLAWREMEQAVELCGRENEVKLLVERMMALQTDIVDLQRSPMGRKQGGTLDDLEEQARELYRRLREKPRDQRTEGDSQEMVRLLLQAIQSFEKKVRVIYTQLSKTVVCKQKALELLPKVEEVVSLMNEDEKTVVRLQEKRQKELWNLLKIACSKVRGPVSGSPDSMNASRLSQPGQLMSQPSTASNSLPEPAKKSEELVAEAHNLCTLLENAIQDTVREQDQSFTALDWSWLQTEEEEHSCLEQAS
Nature of the test: Kinase-Glo Luminescent Kinase Assay. The class given is biochemical. As to the method: (§1) SI-12 was also tested for its ability to disrupt kinase activity. The effects of the compound were tested on a panel of 24 kinases using a Kinase-Glo Luminescent Kinase Assay system (Promega; Madison, Wis.). SI-12 was tested, at concentrations of 1000 nM, 50 nM, and 5 nM, for its ability to interfere with recombinant kinases in the assay system. The amount of ATP to ADP conversion in the presence of SI-12 was compared to a DMSO vehicle control. The values shown in Table 3 represent the percentage of kinase activity compared to a DMSO vehicle control.
(§2) In Table 3, “−” represents less than 20% inhibition; “+” represents from 20% to 40% inhibition; “++” represents from 40% to 60% inhibition; and “+++” represents greater than 60% inhibition.
A general note: Kinase-Glo measures the ATP left after a reaction by luminescence.

The target in another test is T2, CK2a 1 (Homo sapiens, UniProt P68400).
T2 construct: purchased Promega
T2 sequence (P68400 whole entry): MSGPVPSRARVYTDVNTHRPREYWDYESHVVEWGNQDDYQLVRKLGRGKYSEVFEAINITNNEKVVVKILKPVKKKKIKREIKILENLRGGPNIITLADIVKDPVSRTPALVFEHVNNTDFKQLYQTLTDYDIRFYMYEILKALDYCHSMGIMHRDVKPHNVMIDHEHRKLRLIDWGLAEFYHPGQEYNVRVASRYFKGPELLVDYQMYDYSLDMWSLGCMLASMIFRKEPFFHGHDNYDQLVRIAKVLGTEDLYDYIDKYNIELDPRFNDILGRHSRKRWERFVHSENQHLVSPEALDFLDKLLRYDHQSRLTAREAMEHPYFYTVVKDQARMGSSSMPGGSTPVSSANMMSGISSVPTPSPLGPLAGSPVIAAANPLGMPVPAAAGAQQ
Nature of the test: Kinase-Glo Luminescent Kinase Assay. The class given is biochemical. The procedure:
as §1, §2

Another test concerns the target T3, PAK1/CDC42 (Homo sapiens, UniProt Q13153).
T3 construct: purchased Promega
Description: Kinase-Glo Luminescent Kinase Assay. The class given is biochemical. As to the method:
as §1, §2

For the next test, the target named is T4, DAPK1 (Homo sapiens, UniProt P53355).
T4 construct: purchased Promega
T4 sequence (P53355 whole entry): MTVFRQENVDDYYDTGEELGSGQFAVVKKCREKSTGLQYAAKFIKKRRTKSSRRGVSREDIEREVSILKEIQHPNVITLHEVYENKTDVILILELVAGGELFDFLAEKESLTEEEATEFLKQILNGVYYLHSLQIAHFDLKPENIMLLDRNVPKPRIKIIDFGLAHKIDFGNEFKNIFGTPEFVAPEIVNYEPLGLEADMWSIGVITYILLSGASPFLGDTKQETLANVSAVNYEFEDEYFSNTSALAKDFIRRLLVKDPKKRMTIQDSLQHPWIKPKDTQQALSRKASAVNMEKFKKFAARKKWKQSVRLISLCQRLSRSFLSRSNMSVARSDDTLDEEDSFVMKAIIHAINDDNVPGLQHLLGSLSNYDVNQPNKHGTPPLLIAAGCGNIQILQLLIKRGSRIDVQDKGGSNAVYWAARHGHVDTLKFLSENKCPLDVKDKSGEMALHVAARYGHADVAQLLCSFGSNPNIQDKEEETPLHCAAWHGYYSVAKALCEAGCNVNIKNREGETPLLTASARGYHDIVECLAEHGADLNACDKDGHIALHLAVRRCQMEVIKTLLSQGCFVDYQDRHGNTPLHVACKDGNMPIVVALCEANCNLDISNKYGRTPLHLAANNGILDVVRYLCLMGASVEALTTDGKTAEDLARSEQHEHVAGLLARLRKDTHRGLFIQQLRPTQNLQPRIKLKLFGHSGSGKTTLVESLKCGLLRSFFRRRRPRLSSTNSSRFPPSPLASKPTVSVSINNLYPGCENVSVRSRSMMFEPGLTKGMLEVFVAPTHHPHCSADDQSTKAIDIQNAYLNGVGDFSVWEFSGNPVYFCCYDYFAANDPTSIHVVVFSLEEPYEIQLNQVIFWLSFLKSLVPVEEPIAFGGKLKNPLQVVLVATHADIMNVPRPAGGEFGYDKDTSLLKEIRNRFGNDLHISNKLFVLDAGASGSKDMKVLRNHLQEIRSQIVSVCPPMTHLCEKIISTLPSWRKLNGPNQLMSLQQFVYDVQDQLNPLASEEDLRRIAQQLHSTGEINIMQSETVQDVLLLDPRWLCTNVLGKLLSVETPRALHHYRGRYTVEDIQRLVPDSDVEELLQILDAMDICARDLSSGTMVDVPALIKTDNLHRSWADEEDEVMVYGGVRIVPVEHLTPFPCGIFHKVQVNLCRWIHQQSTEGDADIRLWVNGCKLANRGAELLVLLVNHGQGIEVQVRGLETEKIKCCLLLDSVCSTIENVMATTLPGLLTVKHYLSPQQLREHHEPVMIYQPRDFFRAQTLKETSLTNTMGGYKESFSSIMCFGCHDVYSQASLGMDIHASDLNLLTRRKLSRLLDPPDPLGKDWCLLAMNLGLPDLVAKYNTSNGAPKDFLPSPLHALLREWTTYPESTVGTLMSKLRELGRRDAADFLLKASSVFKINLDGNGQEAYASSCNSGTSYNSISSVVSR
Description: Kinase-Glo Luminescent Kinase Assay. The format is biochemical. The procedure: as §1, §2

The target in the next test is T5, P38A (Homo sapiens, UniProt Q16539).
T5 construct: purchased Promega
T5 sequence (Q16539 2-360 limits assumed): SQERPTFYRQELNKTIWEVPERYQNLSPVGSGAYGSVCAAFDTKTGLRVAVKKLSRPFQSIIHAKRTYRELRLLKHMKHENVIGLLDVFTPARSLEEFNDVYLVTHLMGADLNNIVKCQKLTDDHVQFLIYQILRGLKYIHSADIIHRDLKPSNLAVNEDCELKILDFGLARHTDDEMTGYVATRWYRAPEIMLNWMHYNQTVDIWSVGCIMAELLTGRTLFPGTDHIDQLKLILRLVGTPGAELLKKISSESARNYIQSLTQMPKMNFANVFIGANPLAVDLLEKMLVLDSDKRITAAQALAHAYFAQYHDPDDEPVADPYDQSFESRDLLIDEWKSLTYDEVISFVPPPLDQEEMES
Nature of the test: Kinase-Glo Luminescent Kinase Assay. The format is biochemical. As to the method: as §1, §2

A further test concerns the target T6, SYK (Homo sapiens, UniProt P43405).
T6 construct: purchased Promega
Description: Kinase-Glo Luminescent Kinase Assay. The format is biochemical. The procedure: as §1, §2

The target of the next test is T7, IRAK4 (Homo sapiens, UniProt Q9NWZ3).
T7 construct: purchased Promega
T7 sequence (Q9NWZ3 1-460): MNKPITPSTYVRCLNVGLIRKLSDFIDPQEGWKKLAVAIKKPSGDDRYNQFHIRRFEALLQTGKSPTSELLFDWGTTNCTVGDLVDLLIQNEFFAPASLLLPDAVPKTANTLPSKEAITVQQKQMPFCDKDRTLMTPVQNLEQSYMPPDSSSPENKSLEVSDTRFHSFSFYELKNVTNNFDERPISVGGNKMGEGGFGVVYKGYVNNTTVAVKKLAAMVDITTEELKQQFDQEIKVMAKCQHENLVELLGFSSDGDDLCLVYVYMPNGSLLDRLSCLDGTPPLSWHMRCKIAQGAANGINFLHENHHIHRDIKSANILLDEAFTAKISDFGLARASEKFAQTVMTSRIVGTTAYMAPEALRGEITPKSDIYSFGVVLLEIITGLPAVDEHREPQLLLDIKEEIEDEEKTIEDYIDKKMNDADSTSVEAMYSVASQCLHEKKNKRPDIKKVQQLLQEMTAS
Description: Kinase-Glo Luminescent Kinase Assay. The format is biochemical. As to the method:
as §1, §2

For a further test, the system named is MDA-MB-231 tumor cells. Description: MDA-MB-231 xenograft model (luciferase imaging). Particulars: 4 mg/kg 5 times per week, five-week period. The format is in vivo, Nude mice. As to the method:
The quantitated luciferase activity is shown in the graph in FIG. 4.
SI-12 was evaluated in a MDA-MB-231 model where the MDA-MB-231 tumor cells were stably transfected with a luciferase expression vector. Nude mice had 2.5×10^5 tumor cells implanted into cleared mammary fat pads of nude mice. The progression of tumors in control and SI-12 treated animals (4 mg/kg 5 times per week) was followed by luciferase imaging of the mice over a five-week period.

T3 sequence (Q13153 whole entry): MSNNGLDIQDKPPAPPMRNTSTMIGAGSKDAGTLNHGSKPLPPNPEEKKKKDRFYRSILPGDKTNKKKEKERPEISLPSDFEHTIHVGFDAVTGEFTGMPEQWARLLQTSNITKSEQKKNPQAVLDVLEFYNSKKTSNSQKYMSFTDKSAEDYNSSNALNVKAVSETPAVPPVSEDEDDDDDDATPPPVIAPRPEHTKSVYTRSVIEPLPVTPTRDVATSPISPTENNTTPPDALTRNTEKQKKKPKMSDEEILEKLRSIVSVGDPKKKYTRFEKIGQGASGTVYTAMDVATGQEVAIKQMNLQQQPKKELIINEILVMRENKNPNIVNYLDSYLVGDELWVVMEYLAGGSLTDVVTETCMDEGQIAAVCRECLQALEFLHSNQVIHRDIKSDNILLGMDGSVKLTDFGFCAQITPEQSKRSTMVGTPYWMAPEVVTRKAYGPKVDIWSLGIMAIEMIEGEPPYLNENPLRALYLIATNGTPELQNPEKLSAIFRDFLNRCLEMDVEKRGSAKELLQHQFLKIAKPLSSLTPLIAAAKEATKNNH

On to `CC(=NNc1nc2cc(F)c(F)cc2n1C)c1ccc(F)cn1` [SI-12], for which the IKKb kinase inhibition result at IKKb (5 nM) is on record as “++ (from 40% to 60% inhibition)”; on IKKb (50 nM), “+++ (greater than 60% inhibition)”; on IKKb (1000 nM), “+++ (greater than 60% inhibition)”. The “CK2a 1 kinase inhibition” value on CK2a 1 (5 nM), at CK2a 1 (50 nM) and at CK2a 1 (1000 nM) was “− (less than 20% inhibition)” throughout. Moreover, the PAK1/CDC42 kinase inhibition result at PAK1/CDC42 (5 nM), on PAK1/CDC42 (50 nM) and on PAK1/CDC42 (1000 nM) was “− (less than 20% inhibition)” in each case. Besides, the DAPK1 kinase inhibition entry at DAPK1 (5 nM), at DAPK1 (50 nM) and on DAPK1 (1000 nM) was “− (less than 20% inhibition)” throughout. In addition, the P38A kinase inhibition entry on P38A (5 nM), on P38A (50 nM) and on P38A (1000 nM) was “− (less than 20% inhibition)” throughout. Moreover, the SYK kinase inhibition entry on SYK (5 nM), at SYK (50 nM) and on SYK (1000 nM) was “− (less than 20% inhibition)” throughout. The IRAK4 kinase inhibition result on IRAK4 (5 nM), on IRAK4 (50 nM) and on IRAK4 (1000 nM) was “− (less than 20% inhibition)” in each case. Besides, in the test on MDA-MB-231 tumor cells, the “luciferase expression at primary tumor and lung metastasis (whole body imaging)” value was “reduced luciferase expression at both the sites of the primary tumor and of MDA-MB-231 metastasis to the lung”. For the same compound, the “tumor growth in MDA-MB-231 xenograft model” value with MDA-MB-231 tumor cells is “can inhibit tumor growth”.
